Key:
nCGL1 (native CGL1) = biological target: T1, nCGL1 (native CGL1) (Magallana gigas, UniProt K1QRB6); assay: isothermal titration calorimetry; assay type: binding; conditions: read-out: K / × 10^3 M^-1 (converted)
T1 construct: gene CGI_10011001; native purification from oyster bodies (mannose-Cellulofine)
From the text: isothermal titration calorimetry on nCGL1 (native CGL1)

[1] = biological target: CGL1 (preparation not told: native or recombinant) (Crassostrea gigas); assay: dynamic light scattering (DLS) + other: small angle X-ray scattering (SAXS); in an aqueous solution

Row | Kd (nCGL1 (native CGL1)) [µM] | stoichiometry N [1] | Molecule
1 | 671 | – | CO[C@H]1O[C@H](CO)[C@@H](O)[C@H](O)[C@@H]1O [α-MeMan]
2 | – | 2 | CGL1 (preparation not told: native or recombinant) (natural protein)

Reference: paper PMC4932603, “Identification, Characterization, and X-ray Crystallographic Analysis of a Novel Type of Mannose-Specific Lectin CGL1 from the Pacific Oyster Crassostrea gigas” (Scientific Reports, 2016)
